Results as given in US20250304623A1, “PEPTIDES FOR INTRACELLULAR DELIVERY” (UNIVERSIDADE DE SANTIAGO DE COMPOSTELA, priority 2022, published 2025).
*: point of attachment. NHNH2 = NN*

Tests used:
Format in all cases: cell-based
[1] = test system: HCT116 cells; experiment: EGFP mRNA delivery, robotic library screening, HCT116
How it was run: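 Transfection used amphiphile at final 2.5, 5 or 10 μM with EGFP mRNA (25 ng/well) for 4 h without serum, then medium with 10% FBS. Plate-reader EGFP signal at 72 h, untreated background removed, mean of triplicates.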

[2] = test system: Hek293 cells expressing EGFP; experiment: Cas9-RNP delivery against EGFP (gene editing, plate reader), Hek293
How it was run: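 After 4 h of exposure to RNP/amphiphile complexes, cells received fresh DMEM with 10% FBS. EGFP fluorescence was measured by plate reader 72 h later. Gene editing was expressed as percent reduction in GFP fluorescence relative to untreated cells, after subtracting untreated-control background. Values are triplicate means.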

[3] = test system: Hela cells expressing EGFP; experiment: Cas9-RNP delivery against EGFP (gene editing, plate reader), HeLa
How it was run: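 HeLa cells stably expressing EGFP were plated in 96-well plates at 50,000 cell/mL (100 μL/w) in DMEM+10% FBS+1% Gln-Abt one day ahead. Cas9-RNP targeting EGFP was premixed with amphiphile for 30 min at room temperature, applied for 4 h at 50 nM RNP, then medium was replaced; EGFP fluorescence was read on a plate reader after 72 h, in triplicate.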

Ac-RRLK*RLLRRLK*RLK*RRL-NH2 (Ac-RRLK(NHNH2)RLLRRLK(NHNH2)RLK(NHNH2)RRL-NH2; not fully specified; printed as Ac-RRLK*RLLRRLK*RLK*RRL-NH2; also: K*4,K*11,K*14: native or modified lysine (ε-amide to a linker)) [Peptide 17.3]
mean fluorescence intensity (EGFP mRNA) ([1]; Dodecanal, 5 μM): 130 | mean fluorescence intensity (EGFP mRNA) ([1]; Dodecanal, 10 μM): 312 | mean fluorescence intensity (EGFP mRNA) ([1]; Myristoleyl, 2.5 μM): 570 | mean fluorescence intensity (EGFP mRNA) ([1]; Myristoleyl, 5 μM): 247 | mean fluorescence intensity (EGFP mRNA) ([1]; Petroselinyl, 2.5 μM): 373 | mean fluorescence intensity (EGFP mRNA) ([1]; Petroselinyl, 5 μM): 168 | mean fluorescence intensity (EGFP mRNA) ([1]; Petroselinyl, 10 μM): 66 | percentage of gene editing, GFP fluorescence intensity decrease (% of reduction) ([2]; Palmitoleyl, 5 μM): −19% | percentage of gene editing, GFP fluorescence intensity decrease (% of reduction) ([2]; Palmitoleyl, 10 μM): −32% | percentage of gene editing, GFP fluorescence intensity decrease (% of reduction) ([2]; Palmitoleyl, 15 μM): −34% | percentage of gene editing, GFP fluorescence intensity decrease (% of reduction) ([2]; Petroselinyl, 5 μM): 2% | percentage of gene editing, GFP fluorescence intensity decrease (% of reduction) ([2]; Petroselinyl, 10 μM): −37% | percentage of gene editing, GFP fluorescence intensity decrease (% of reduction) ([3]; Dodecanal, 5 μM, Hela cells): 81% | percentage of gene editing, GFP fluorescence intensity decrease (% of reduction) ([3]; Dodecanal, 10 μM, HeLa cells): 87% | percentage of gene editing, GFP fluorescence intensity decrease (% of reduction) ([3]; Dodecanal, 15 μM, Hela cells): 78% | percentage of gene editing, GFP fluorescence intensity decrease (% of reduction) ([3]; Myristoleyl, 5 μM, HeLa cells): 57% | percentage of gene editing, GFP fluorescence intensity decrease (% of reduction) ([3]; Oleyl, 10 μM, HeLa cells): 90% | percentage of gene editing, GFP fluorescence intensity decrease (% of reduction) ([3]; Oleyl, 15 μM, Hela cells): 82% | percentage of gene editing, GFP fluorescence intensity decrease (% of reduction) ([3]; Palmitoleyl, 5 μM, HeLa cells): 35% | percentage of gene editing, GFP fluorescence intensity decrease (% of reduction) ([3]; Palmitoleyl, 10 μM, HeLa cells): 90% | percentage of gene editing, GFP fluorescence intensity decrease (% of reduction) ([3]; Palmitoleyl, 15 μM, Hela cells): 88% | percentage of gene editing, GFP fluorescence intensity decrease (% of reduction) ([3]; Petroselinyl, 5 μM, HeLa cells): 48% | percentage of gene editing, GFP fluorescence intensity decrease (% of reduction) ([3]; Petroselinyl, 15 μM, Hela cells): 87%
